# Test results: patent US20060240028A1, “Anti-nls substances and uses thereof in nuclear import inhibition” (priority 2002, published 2006)
# No end group written: not given here.
# B1: VprN peptide (free synthetic peptide) (peptide)
# peptide: CNEWTLELLEELKNEAVRHF
# modifications: cysteine added at the N-terminus
# B2: synthetic anti-VprN peptide a (CDR3 random insert of phage A) (peptide)
# peptide: ISSD
# modifications: not fully specified
# B3: synthetic anti-VprN peptide c (CDR3 random insert of phage C) (peptide)
# peptide: HFHYKGKLQTF
# modifications: not fully specified
# Key:
# [1] = system: interaction between anti-VprN scFv antibodies and surface-bound BSA-VprN conjugate; experiment: Competition ELISA: inhibition of anti-VprN scFv binding to surface-bound BSA-VprN by soluble ligands; set-up: species or system HIV-1; settings: for inhibition of binding of the three antibodies to VprN-BSA by soluble ligand: Ab1, Ab2, Ab3
# Method: (§1) The various ELISA assays used in the present work were carried out as follows: MaxiSorb plates (NUNC) were covered overnight with 25-100 μg/ml of the antigen (in Carbonate Buffer 0.05M Na2CO3/0.05M NaHCOs, pH9.6) at 4° C. On the next day, the plates were washed three times with 1×PBS and blocked with 2% BSA in 1×PBS (for antibodies) or 2% Skim Milk (DIFCO) in 1×PBS (for all other molecules) for 2 hours at 37° C. The plates were then washed three times with 1×PBS, and the appropriate ligand (in blocking solution) was added and incubated for 2 hours at 37° C. The plates were then washed three times with 1×PBS and the following detecting agents were added for detecting the antigen-ligand complexes: Avidin-POD (Roche Diagnostics), for biotin labeled molecules (1 unit/ml); anti-M13 monoclonal antibody (Amersham Pharmacia, 1:5000), for the bound phages; and a mix of mouse anti-myc antibody (Sigma, 1:1000) with anti-mouse-HRP antibody (Sigma, 1:2000) for the scFv antibodies. Each detecting agent was dissolved in the appropriate blocking solution (see above). Following incubation for 1 hour at 37° C. with the detecting agent, the plates were washed three times with 1×PBS and the appropriate substrate was added, according to manufacturer instructions.
# [2] = system: binding of anti-VprN scFv antibodies to Vpr-GST; experiment: Competition ELISA: inhibition of anti-VprN scFv binding to surface-bound Vpr-GST; set-up: species or system HIV-1; settings: for inhibition of binding of all three antibodies to Vpr-GST by added ligand: Ab1, Ab2, Ab3
# Method: as §1
# [3] = system: VprN-mediated nuclear import; experiment: Nuclear import of FL-BSA-VprN in permeabilized HeLa cells, fluorescence microscopy; assay type: cell-based; settings: 1 mg/ml WGA, 4 mM GTP-γ-S, Table 2 (not given)
# Method: (§2) Nuclear import of rhodamine-labeled BSA-NLS conjugates (FL-BSA-NLS) was performed as described before [Adam (1992) id ibid.; Broder (1997) id ibid.]. Amounts of FL-BSA-NLS substrate for FL-BSA SV40 large T-Ag NLS was 3-5 μg/system and for the FL-BSA-VprN 25 μg/system. Controls included: 1 mg/ml Wheat Germ Agglutinin (WGA), 4 mM of GTP-γ-S, or 1000 units/ml of Hexokinase and 10 mM Glucose. Samples were observed and photographed using confocal fluorescent microscopy.
# [4] = system: nuclear import of Vpr-GST fusion protein; experiment: Nuclear import of FL-Vpr-GST in digitonin permeabilized HeLa cells; assay type: cell-based; settings: 5-fold excess unlabeled Vpr-GST
# Method: as §2
# The Vpr-GST fusion protein eluted from the Glutathione-Agarose resin was concentrated by VivaScience concentrators (MWCO 30,000) to a final concentration of 2.5-3.0 mg/ml, dialyzed for 2-3 hours against 1×PBS at 4° C. and labeled with rhodamine-maleimide Molecular Probes) according to manufacturer's instructions. Following 2 hours of incubation at room temperature with rotation, the labeled Vpr-GST fusion protein (FL-Vpr-GST) was purified using Sephadex G-25 fine (Pharmacia). The FL-Vpr-GST was then concentrated again using VivaScience concentrators (MWCO 30,000) and stored at −20° C.
# [5] = system: Tat-ARM mediated nuclear import; experiment: Nuclear import of FL-BSA-Tat conjugates in HeLa cells; assay type: cell-based; settings: WGA 1 mg/ml, peptide/FL-BSA-Tat 20/1
# [6] = system: VprN-BSA conjugate (N-terminal domain of Vpr, amino acids 17-34); experiment: ELISA binding to surface-bound BSA-VprN conjugate; set-up: species or system HIV-1; settings: FIG. 2
# Method: Panning of the human scFv antibody phage display library [Harrison, J. L. et al. (1996) Methods in Enzymology 267, 83-109; Nissim, A. et al. (1994) EMBO J 13, 692-698] was conducted as follows. Two immunotubes (5 ml, NUNC) were incubated in parallel, with rotation at room temperature overnight, one containing the BSA-VprN conjugate and the other one containing only BSA, both in 0.1 mg/ml carbonate buffer (0.05M Na2CO3/0.05M NaHCO3, pH9.6). Following incubation, the tube with the surface attached BSA-VprN conjugates was washed three times with 1× PBS and then incubated for two hours at 37° C. with 2% (w/v) skim milk (DIFCO) in 1×PBS (2% MPBS). After three washes with 1× PBS, the scFv phage library (4 ml in 1% MPBS) was added and the tube containing the phage particles was incubated for 30 min with, and for 1.5 hours without rotation, at room temperature. The supernatant was then removed and the tube was washed ten times first with 1×PBS containing 0.05% Tween 20 and then with 1×PBS only. For elution of bound phages, 1 ml of 0.1M triethylamine was added, incubated for 10 min at room temperature with rotation, and the triethylamine solution containing the eluted phages collected and mixed with 0.5 ml of 1M Tris-HCl, pH7.4. […]
# [7] = target: anti-VprN scFv antibody Ab1; experiment: competition ELISA: free VprN peptide against Ab1 binding to coated BSA-VprN
# BSA-SV40 NLS conjugate = target: T1, BSA-SV40 NLS conjugate (SV40, rhodamine- or biotin-labelled in the nuclear import assays; cysteine added at the C-terminus; peptide chemically conjugated to BSA); experiment: peptide ELISA on coated BSA-NLS conjugates (FIG. 2A)
# T1 construct: also called BSA-SV40 large T-antigen NLS; SV40 NLS-BSA conjugate
# Method: (§3) The various ELISA assays used in the present work were carried out as follows: MaxiSorb plates (NUNC) were covered overnight with 25-100 μg/ml of the antigen (in Carbonate Buffer 0.05M Na₂CO₃/0.05M NaHCOs, pH9.6) at 4° C. On the next day, the plates were washed three times with 1×PBS and blocked with 2% BSA in 1×PBS (for antibodies) or 2% Skim Milk (DIFCO) in 1×PBS (for all other molecules) for 2 hours at 37° C. The plates were then washed three times with 1×PBS, and the appropriate ligand (in blocking solution) was added and incubated for 2 hours at 37° C. The plates were then washed three times with 1×PBS and the following detecting agents were added for detecting the antigen-ligand complexes: Avidin-POD (Roche Diagnostics), for biotin labeled molecules (1 unit/ml); anti-M13 monoclonal antibody (Amersham Pharmacia, 1:5000), for the bound phages; and a mix of mouse anti-myc antibody (Sigma, 1:1000) with anti-mouse-HRP antibody (Sigma, 1:2000) for the scFv antibodies. Each detecting agent was dissolved in the appropriate blocking solution (see above). Following incubation for 1 hour at 37° C. with the detecting agent, the plates were washed three times with 1×PBS and the appropriate substrate was added, according to manufacturer instructions.
# BSA-VprN conjugate = target: T2, BSA-VprN conjugate (HIV-1, rhodamine- or biotin-labelled in the nuclear import assays; cysteine added at the N-terminus; peptide chemically conjugated to BSA); experiment: peptide ELISA on coated BSA-NLS conjugates (FIGS. 2A and 2B)
# T2 construct: The peptide is printed with superscripts 16 and 34, the text calls it residues 17-34; also called VprN-BSA conjugate; VprN-BSA
# Method: as §3
molecule,measurement,setting,value
VprN-BSA: BSA molecule bearing about 3-4 covalently attached VprN peptides,inhibition of binding of the three antibodies to VprN-BSA by soluble ligand,[1],inhibited
same,concentration of soluble ligand inhibiting Ab1 binding to its antigen by 90%,"[1]; Ab1, surface-bound VprN-BSA",about 5 μM
same,fold lower concentration than VprN peptide required to block antibody binding to Vpr-GST,[2],about ten
same,inhibition of binding of all three antibodies to Vpr-GST by added ligand,[2],strongly inhibited
"SV40 NLS peptide: PKKKRKVC (SEQ. ID. NO.7), the SV40 large T-antigen NLS (SV40-NLS with extra C)",inhibition of binding of the three antibodies to VprN-BSA by soluble ligand,[1],No or low inhibition
wheat germ agglutinin [WGA],inhibition of nuclear import of BSA-VprN conjugate by control agents,[3],inhibited
same,inhibition of nuclear import of Vpr-GST by control agents,[4],inhibited
same,inhibition of nuclear import of FL-BSA Tat ARM conjugates by control agents,[5],inhibited
"peptide a: synthetic peptide of the CDR3 random insert of phage A, ISSD (SEQ. ID. NO. 4) (AFMKSGKRFIH; CDR3 random insert sequence of Ab2)",binding of anti-VprN peptide to VprN-BSA conjugate,[6],failed to recognize
VprN mutant (CNEATLELLPELKNPAVRHF),inhibition of binding of the three antibodies to VprN-BSA by soluble ligand,[1],No or low inhibition
same,inhibition of binding of all three antibodies to Vpr-GST by added ligand,[2],no or little inhibition
Nc1nc2c(ncn2[C@@H]2O[C@H](COP(=O)(O)OP(=O)(O)OP(O)(O)=S)[C@@H](O)[C@H]2O)c(=O)[nH]1 [GTP-γ-S],inhibition of nuclear import of BSA-VprN conjugate by control agents,[3],partially inhibited
same,inhibition of nuclear import of Vpr-GST by control agents,[4],partially inhibited
B1,concentration giving 90% inhibition,[7],> 15 µM
B2,binding result,BSA-SV40 NLS conjugate,no binding
same,binding result,BSA-VprN conjugate,no binding
B3,binding result,BSA-SV40 NLS conjugate,no binding
same,binding result,BSA-VprN conjugate,no binding
